Measurements taken from the NIST ThermoML archive (doi:10.1021/je400134d).
Numbers after ± are expanded uncertainties.

Assay: xn = mol fraction of the nth substance listed
Details: 100 kPa, Liquid; for speed of sound: Pulse-echo method; for mass density: Vibrating tube method

CNc1ccccc1 [N-methylaniline] + CCCCCCC
speed of sound (293.15 K, x1 = 0.054): 1164.1 ± 1.4 m/s
speed of sound (293.15 K, x1 = 0.1084): 1177.2 ± 1.4 m/s
speed of sound (293.15 K, x1 = 0.1536): 1188.4 ± 1.4 m/s
speed of sound (293.15 K, x1 = 0.2): 1200 ± 1.5 m/s
speed of sound (293.15 K, x1 = 0.2556): 1214.5 ± 1.5 m/s
speed of sound (293.15 K, x1 = 0.2976): 1226.1 ± 1.6 m/s
speed of sound (293.15 K, x1 = 0.3473): 1240.6 ± 1.6 m/s
speed of sound (293.15 K, x1 = 0.3944): 1255.2 ± 1.6 m/s
speed of sound (293.15 K, x1 = 0.4485): 1273.5 ± 1.7 m/s
speed of sound (293.15 K, x1 = 0.4953): 1291 ± 1.8 m/s
speed of sound (293.15 K, x1 = 0.5355): 1306.9 ± 1.8 m/s
speed of sound (293.15 K, x1 = 0.599): 1335 ± 1.9 m/s
speed of sound (293.15 K, x1 = 0.6436): 1356.6 ± 1.9 m/s
speed of sound (293.15 K, x1 = 0.7024): 1387.7 ± 2 m/s
speed of sound (293.15 K, x1 = 0.7457): 1412.5 ± 2 m/s
speed of sound (293.15 K, x1 = 0.7858): 1436.7 ± 2.1 m/s
speed of sound (293.15 K, x1 = 0.8459): 1474.7 ± 2.2 m/s
speed of sound (293.15 K, x1 = 0.8952): 1507.9 ± 2.2 m/s
speed of sound (293.15 K, x1 = 0.9491): 1545.5 ± 2.3 m/s
mass density (293.15 K, x1 = 0.054): 695.999 ± 0.25 kg/m3
mass density (293.15 K, x1 = 0.1084): 708.778 ± 0.26 kg/m3
mass density (293.15 K, x1 = 0.1536): 719.814 ± 0.27 kg/m3
mass density (293.15 K, x1 = 0.2): 731.341 ± 0.27 kg/m3
mass density (293.15 K, x1 = 0.2556): 745.704 ± 0.28 kg/m3
mass density (293.15 K, x1 = 0.2976): 756.81 ± 0.29 kg/m3
mass density (293.15 K, x1 = 0.3473): 770.261 ± 0.3 kg/m3
mass density (293.15 K, x1 = 0.3944): 783.41 ± 0.32 kg/m3
mass density (293.15 K, x1 = 0.4485): 798.879 ± 0.34 kg/m3
mass density (293.15 K, x1 = 0.4953): 812.615 ± 0.36 kg/m3
mass density (293.15 K, x1 = 0.5355): 824.725 ± 0.38 kg/m3
mass density (293.15 K, x1 = 0.599): 844.458 ± 0.41 kg/m3
mass density (293.15 K, x1 = 0.6436): 858.711 ± 0.44 kg/m3
mass density (293.15 K, x1 = 0.7024): 878.07 ± 0.49 kg/m3
mass density (293.15 K, x1 = 0.7457): 892.769 ± 0.53 kg/m3
mass density (293.15 K, x1 = 0.7858): 906.675 ± 0.56 kg/m3
mass density (293.15 K, x1 = 0.8459): 928.153 ± 0.63 kg/m3
mass density (293.15 K, x1 = 0.8952): 946.22 ± 0.69 kg/m3
mass density (293.15 K, x1 = 0.9491): 966.608 ± 0.76 kg/m3
speed of sound (298.15 K, x1 = 0.0577): 1143.9 ± 1.4 m/s
speed of sound (298.15 K, x1 = 0.1072): 1156.2 ± 1.4 m/s
speed of sound (298.15 K, x1 = 0.1473): 1166.3 ± 1.4 m/s
speed of sound (298.15 K, x1 = 0.2055): 1181.4 ± 1.5 m/s
speed of sound (298.15 K, x1 = 0.2595): 1193.9 ± 1.5 m/s
speed of sound (298.15 K, x1 = 0.3033): 1208.3 ± 1.6 m/s
speed of sound (298.15 K, x1 = 0.3401): 1219.2 ± 1.6 m/s
speed of sound (298.15 K, x1 = 0.3955): 1236.7 ± 1.6 m/s
speed of sound (298.15 K, x1 = 0.4559): 1257.6 ± 1.7 m/s
speed of sound (298.15 K, x1 = 0.503): 1275.5 ± 1.8 m/s
speed of sound (298.15 K, x1 = 0.5431): 1291.9 ± 1.8 m/s
speed of sound (298.15 K, x1 = 0.5956): 1315.3 ± 1.9 m/s
speed of sound (298.15 K, x1 = 0.6441): 1338.8 ± 1.9 m/s
speed of sound (298.15 K, x1 = 0.6995): 1368.1 ± 2 m/s
speed of sound (298.15 K, x1 = 0.7491): 1396.2 ± 2 m/s
speed of sound (298.15 K, x1 = 0.7964): 1425.1 ± 2.1 m/s
speed of sound (298.15 K, x1 = 0.8446): 1455.9 ± 2.2 m/s
speed of sound (298.15 K, x1 = 0.8949): 1489.6 ± 2.2 m/s
speed of sound (298.15 K, x1 = 0.9465): 1525.6 ± 2.3 m/s
mass density (298.15 K, x1 = 0.0577): 692.58 ± 0.25 kg/m3
mass density (298.15 K, x1 = 0.1072): 704.27 ± 0.26 kg/m3
mass density (298.15 K, x1 = 0.1473): 713.999 ± 0.26 kg/m3
mass density (298.15 K, x1 = 0.2055): 728.558 ± 0.27 kg/m3
mass density (298.15 K, x1 = 0.2595): 742.491 ± 0.28 kg/m3
mass density (298.15 K, x1 = 0.3033): 754.107 ± 0.29 kg/m3
mass density (298.15 K, x1 = 0.3401): 764.024 ± 0.3 kg/m3
mass density (298.15 K, x1 = 0.3955): 779.471 ± 0.32 kg/m3
mass density (298.15 K, x1 = 0.4559): 796.765 ± 0.34 kg/m3
mass density (298.15 K, x1 = 0.503): 810.692 ± 0.36 kg/m3
mass density (298.15 K, x1 = 0.5431): 822.843 ± 0.38 kg/m3
mass density (298.15 K, x1 = 0.5956): 839.178 ± 0.41 kg/m3
mass density (298.15 K, x1 = 0.6441): 854.671 ± 0.44 kg/m3
mass density (298.15 K, x1 = 0.6995): 872.931 ± 0.48 kg/m3
mass density (298.15 K, x1 = 0.7491): 889.715 ± 0.52 kg/m3
mass density (298.15 K, x1 = 0.7964): 906.279 ± 0.57 kg/m3
mass density (298.15 K, x1 = 0.8446): 923.55 ± 0.62 kg/m3
mass density (298.15 K, x1 = 0.8949): 942.036 ± 0.68 kg/m3
mass density (298.15 K, x1 = 0.9465): 961.528 ± 0.75 kg/m3
speed of sound (303.15 K, x1 = 0.0615): 1124.9 ± 1.4 m/s
speed of sound (303.15 K, x1 = 0.1111): 1137.5 ± 1.4 m/s
speed of sound (303.15 K, x1 = 0.1548): 1148.8 ± 1.4 m/s
speed of sound (303.15 K, x1 = 0.2069): 1162.6 ± 1.5 m/s
speed of sound (303.15 K, x1 = 0.2501): 1174.4 ± 1.5 m/s
speed of sound (303.15 K, x1 = 0.2964): 1187.5 ± 1.5 m/s
speed of sound (303.15 K, x1 = 0.348): 1203.2 ± 1.6 m/s
speed of sound (303.15 K, x1 = 0.3979): 1219.2 ± 1.6 m/s
speed of sound (303.15 K, x1 = 0.4513): 1238 ± 1.7 m/s
speed of sound (303.15 K, x1 = 0.5003): 1256.5 ± 1.8 m/s
speed of sound (303.15 K, x1 = 0.5583): 1280.8 ± 1.8 m/s
speed of sound (303.15 K, x1 = 0.5988): 1299.2 ± 1.9 m/s
speed of sound (303.15 K, x1 = 0.647): 1322.6 ± 1.9 m/s
speed of sound (303.15 K, x1 = 0.7026): 1351.9 ± 2 m/s
speed of sound (303.15 K, x1 = 0.7475): 1377.4 ± 2 m/s
speed of sound (303.15 K, x1 = 0.7954): 1406.3 ± 2.1 m/s
speed of sound (303.15 K, x1 = 0.8446): 1437.5 ± 2.2 m/s
speed of sound (303.15 K, x1 = 0.8917): 1468.8 ± 2.2 m/s
speed of sound (303.15 K, x1 = 0.9404): 1502.4 ± 2.3 m/s
mass density (303.15 K, x1 = 0.0615): 689.386 ± 0.25 kg/m3
mass density (303.15 K, x1 = 0.1111): 701.082 ± 0.25 kg/m3
mass density (303.15 K, x1 = 0.1548): 711.723 ± 0.26 kg/m3
mass density (303.15 K, x1 = 0.2069): 724.76 ± 0.27 kg/m3
mass density (303.15 K, x1 = 0.2501): 735.88 ± 0.28 kg/m3
mass density (303.15 K, x1 = 0.2964): 748.035 ± 0.28 kg/m3
mass density (303.15 K, x1 = 0.348): 762.057 ± 0.3 kg/m3
mass density (303.15 K, x1 = 0.3979): 775.964 ± 0.31 kg/m3
mass density (303.15 K, x1 = 0.4513): 791.356 ± 0.33 kg/m3
mass density (303.15 K, x1 = 0.5003): 805.793 ± 0.35 kg/m3
mass density (303.15 K, x1 = 0.5583): 823.48 ± 0.38 kg/m3
mass density (303.15 K, x1 = 0.5988): 836.196 ± 0.4 kg/m3
mass density (303.15 K, x1 = 0.647): 851.618 ± 0.43 kg/m3
mass density (303.15 K, x1 = 0.7026): 869.963 ± 0.48 kg/m3
mass density (303.15 K, x1 = 0.7475): 885.221 ± 0.52 kg/m3
mass density (303.15 K, x1 = 0.7954): 901.919 ± 0.56 kg/m3
mass density (303.15 K, x1 = 0.8446): 919.525 ± 0.62 kg/m3
mass density (303.15 K, x1 = 0.8917): 936.846 ± 0.67 kg/m3
mass density (303.15 K, x1 = 0.9404): 955.244 ± 0.74 kg/m3
